Source: PMC4764975, “Probing the enzyme kinetics, allosteric modulation and activation of α1- and α2-subunit-containing AMP-activated protein kinase (AMPK) heterotrimeric complexes by pharmacological and physiological activators” (Biochemical Journal, 2016)
Like-named read-outs stand apart in the source and are kept apart here. One block for each compound: values may come before it.

Tests used:
[1] = target: T1, AMPK α2β2γ1 (Homo sapiens, UniProt O43741+P54619+P54646); experiment: Steady-state kinetics, radiometric SAMS assay; assay type: biochemical; conditions: absence of AMP, SAMS fixed at ~10-fold Km, read-out: Km ATP
T1 construct: Recombinant full-length AMPK heterotrimeric complexes α1β1γ1, α1β2γ1, α1β2γ3, α2β1γ1, α2β2γ1 and α2β2γ3 were cloned; 6X-His (N); made in house; host or cells: E. coli BL21-CodonPlus (DE3)-RIPL
Method: (§1) The kinase activity of pAMPK was measured via AMPK-mediated incorporation of ^33phosphate from [^33P]ATP into the synthetic peptide called SAMS [31] using the radiometric assay as described before. […] Assay linearity was ensured by determining that <30% substrate was depleted for all concentrations tested. The Km values were obtained in the absence of AMP in the reaction. Data were fitted by non-linear regression to the Michaelis–Menten equation using GraphPad prism to obtain the kinetic parameters. The specific radioactivity of each isoform was determined at saturating concentrations of each substrate.

[2] = target: T2, AMPK α2β1γ1 (Homo sapiens, UniProt P54619+P54646+Q9Y478); experiment: Steady-state kinetics, radiometric SAMS assay; assay type: biochemical; conditions: absence of AMP, SAMS fixed at ~10-fold Km, read-out: Km ATP
T2 construct: Recombinant full-length AMPK heterotrimeric complexes α1β1γ1, α1β2γ1, α1β2γ3, α2β1γ1, α2β2γ1 and α2β2γ3 were cloned; 6X-His (N); made in house; host or cells: E. coli BL21-CodonPlus (DE3)-RIPL
Method: as §1

[3] = target: T3, AMPK α1β2γ1 (Homo sapiens, UniProt O43741+P54619+Q13131); experiment: Steady-state kinetics, radiometric SAMS assay; assay type: biochemical; conditions: absence of AMP, SAMS fixed at ~10-fold Km, read-out: Km ATP
T3 construct: Recombinant full-length AMPK heterotrimeric complexes α1β1γ1, α1β2γ1, α1β2γ3, α2β1γ1, α2β2γ1 and α2β2γ3 were cloned; 6X-His (N); made in house; host or cells: E. coli BL21-CodonPlus (DE3)-RIPL
Method: as §1

[4] = target: T4, AMPK α1β2γ3 (Homo sapiens, UniProt O43741+Q13131+Q9UGI9); experiment: Steady-state kinetics, radiometric SAMS assay; assay type: biochemical; conditions: absence of AMP, SAMS fixed at ~10-fold Km, read-out: Km ATP
T4 construct: Recombinant full-length AMPK heterotrimeric complexes α1β1γ1, α1β2γ1, α1β2γ3, α2β1γ1, α2β2γ1 and α2β2γ3 were cloned; 6X-His (N); made in house; host or cells: E. coli BL21-CodonPlus (DE3)-RIPL
Method: as §1

[5] = target: T5, AMPK α2β2γ3 (Homo sapiens, UniProt O43741+P54646+Q9UGI9); experiment: Steady-state kinetics, radiometric SAMS assay; assay type: biochemical; conditions: absence of AMP, SAMS fixed at ~10-fold Km, read-out: Km ATP
T5 construct: Recombinant full-length AMPK heterotrimeric complexes α1β1γ1, α1β2γ1, α1β2γ3, α2β1γ1, α2β2γ1 and α2β2γ3 were cloned; 6X-His (N); made in house; host or cells: E. coli BL21-CodonPlus (DE3)-RIPL
Method: as §1

[6] = target: T6, AMPK α1β1γ1 (Homo sapiens, UniProt P54619+Q13131+Q9Y478); experiment: Steady-state kinetics, radiometric SAMS assay; assay type: biochemical; conditions: absence of AMP, SAMS fixed at ~10-fold Km, read-out: Km ATP
T6 construct: Recombinant full-length AMPK heterotrimeric complexes α1β1γ1, α1β2γ1, α1β2γ3, α2β1γ1, α2β2γ1 and α2β2γ3 were cloned; 6X-His (N); made in house; host or cells: E. coli BL21-CodonPlus (DE3)-RIPL
Method: as §1

[7] = target: T7, BAP-tagged AMPK α2β2γ3 (Homo sapiens, UniProt O43741+P54646+Q9UGI9); experiment: SPR direct binding (Biacore)
T7 construct: Recombinant full-length AMPK heterotrimeric complexes α1β1γ1, α1β2γ1, α1β2γ3, α2β1γ1, α2β2γ1 and α2β2γ3 were cloned into a tricistronic vector system; 6X-His (N); made in house; host or cells: E. coli BL21-CodonPlus (DE3)-RIPL, co-expressed with BirA
Method: (§2) SPR experiments were performed on a Biacore™ 3000 instrument (GE Healthcare). BAP-tagged AMPK isoform (α1β1γ1, α1β2γ1, α2β2γ1, α2β2γ3) was captured on to a streptavidin sensor chip to levels ranging from 4000 to 6000 RU. […] Binding responses were processed using Scrubber 2 (BioLogic Software Pty Ltd) to zero, x-align, double reference and corrected for excluded volume effect of DMSO in the data. […] The compound was injected at a flow rate of 50 μl/min with total contact time of 120 s and dissociation time of 600 s. Rate parameters (kon, koff) and corresponding dissociation constant(KD=koff/kon) were determined by globally fitting all of the experimental data to a simple 1:1 interaction model using Biaeval software (GE Healthcare). To determine nt binding, 10 concentrations with 2-fold dilutions were tested in duplicate. The highest concentration tested was 2 mM. The compound was injected at a flow rate of 50 μl/min with total contact time of 120 s and dissociation time of 300 s. Equilibrium dissociation constant (KD) was determined using a steady-state affinity algorithm available within Scrubber.
(§3) We then compared the binding of nts (AMP, ADP and ATP) to α1β1γ1, α1β2γ1, α2β2γ1 and α2β2γ3 isoforms in the presence and absence of Mg^2+ and Stau, using SPR technique.

[8] = target: T8, BAP-tagged AMPK α1β2γ1 (Homo sapiens, UniProt O43741+P54619+Q13131); experiment: SPR direct binding (Biacore)
T8 construct: Recombinant full-length AMPK heterotrimeric complexes α1β1γ1, α1β2γ1, α1β2γ3, α2β1γ1, α2β2γ1 and α2β2γ3 were cloned into a tricistronic vector system; 6X-His (N); made in house; host or cells: E. coli BL21-CodonPlus (DE3)-RIPL, co-expressed with BirA
Method: as §2, §3

[9] = target: full-length, pAMPK; design: method as in PMID 21399626; conditions: presence of Mg2+, cited from earlier work
[10] = target: T9, BAP-tagged AMPK α1β1γ1 (Homo sapiens, UniProt P54619+Q13131+Q9Y478); experiment: SPR direct binding (Biacore)
T9 construct: Recombinant full-length AMPK heterotrimeric complexes α1β1γ1, α1β2γ1, α1β2γ3, α2β1γ1, α2β2γ1 and α2β2γ3 were cloned; 6X-His (N); AviTag (BAP); made in house; host or cells: E. coli (co-expressed with BirA)
Method: as §2
(§4) We then compared the binding of nts (AMP, ADP and ATP) to α1β1γ1, α1β2γ1, α2β2γ1 and α2β2γ3 isoforms in the presence and absence of Mg^2+ and Stau, using SPR technique. […]

[11] = target: T10, BAP-tagged AMPK α2β2γ1 (Homo sapiens, UniProt O43741+P54619+P54646); experiment: SPR direct binding (Biacore)
T10 construct: Recombinant full-length AMPK heterotrimeric complexes α1β1γ1, α1β2γ1, α1β2γ3, α2β1γ1, α2β2γ1 and α2β2γ3 were cloned into a tricistronic vector system; 6X-His (N); made in house; host or cells: E. coli BL21-CodonPlus (DE3)-RIPL, co-expressed with BirA
Method: as §2, §4

[12] = target: T1, AMPK α2β2γ1; experiment: Phosphatase (PP2Aα) sensitivity, pThr172/174 dephosphorylation; assay type: biochemical; conditions: PP2Aα concentration for half-maximal dephosphorylation, absence of activator, read-out: PP2Aα sensitivity dEC50
Method: (§5) Test compound was previously diluted in half-log increments, starting at 40 μM in 100% DMSO, diluted 10-fold in assay buffer and dispensed into a microtitre plate. After 15 min at room temperature, phosphatase was added to the mixture and the reaction was allowed to proceed for 60 min at room temperature. Reactions were quenched by the addition of okadaic acid, and transferred to PVDF membrane using the slot-blot apparatus and subjected to immunoblotting. Phosphatase sensitivity was similarly assessed by subjecting pAMPK to a phosphatase (PP2Aα) treatment using various concentrations and incubation times. The concentration of phosphatase was expressed as nmol of PP2Aα per minute per nmol of pAMPK in the reaction.
(§6) The membrane was blocked with Western Blot Blocking Buffer Reagent (Li-Cor) for 3–4 h at room temperature. The blot was probed using a rabbit α-pThr^172/174-specific antibody (Cell Signaling 40H9) at 1:500 dilution for 2 h and washed three times using 1 × PBS/0.1% Tween 20 (42°C pre-warmed wash buffer). Following the wash step, goat anti-rabbit 800CW (Rockland) at 1:10000 dilution was used as a secondary antibody. Blots were visualized using the Li-Cor Odyssey infrared imaging system and signal quantification was performed using the Odyssey software. The pEC50 values (estimated concentration of activator required for half-maximal protection of pThr^172/174 from PP2α) were calculated using GraphPad Prism software.
(§7) We then examined the sensitivity of phospho-α-Thr^172/174 (pThr^172/174) for dephosphorylation by phosphatase (PP2Aα) in the absence of allosteric modulators. The extent of dephosphorylation was measured using an antibody specific to α-pThr^172/174 as described in ‘Experimental’ section. […] The presence of the regulatory subunits (β and γ) leads to increased protection of pAMPK from dephosphorylation compared with the kinase domains alone (Figure 6). […] The dEC50 values for α2-containing isoforms were 40, 57 and 41 nM for α2β1γ1, α2β2γ1 and α2β2γ3 respectively; 13- to 18-fold right-shifted compared with that for isolated α2-kinase domain (Figure 6).
(§8) Figure 6 Phosphatase (PP2Aα) sensitivity of AMPK isoforms Effect of phosphatase (PP2Aα) on pThr^172/174 dephosphorylation of AMPK isoforms in the absence of activators is shown. Data are mean (n=2), and curves were generated using best-fit values.

[13] = target: T11, AMPK α2-kinase domain (α2-KD) (Homo sapiens, UniProt P54646); experiment: as above; assay type: biochemical; conditions: PP2Aα concentration for half-maximal dephosphorylation, absence of activator, read-out: PP2Aα sensitivity dEC50
T11 construct: α2-kinase domain (α2-KD; residues 7–282); 6X-His (N); made in house; host or cells: E. coli BL21-CodonPlus (DE3)-RIPL (pET28a)
Method: as §5, §6, §7, §8

[14] = target: T2, AMPK α2β1γ1; experiment: as above; assay type: biochemical; conditions: PP2Aα concentration for half-maximal dephosphorylation, absence of activator, read-out: PP2Aα sensitivity dEC50
Method: as §5, §6, §7, §8

[15] = target: T12, AMPK α1-kinase domain (α1-KD) (Homo sapiens, UniProt Q13131); experiment: as above; assay type: biochemical; conditions: PP2Aα concentration for half-maximal dephosphorylation, absence of activator, read-out: PP2Aα sensitivity dEC50
T12 construct: AMPK α1-kinase domain (α1-KD; residues 18–293); 6X-His (N); made in house; host or cells: E. coli BL21-CodonPlus (DE3)-RIPL (pET28a)
Method: as §5, §6, §7, §8

[16] = target: T4, AMPK α1β2γ3; experiment: as above; assay type: biochemical; conditions: PP2Aα concentration for half-maximal dephosphorylation, absence of activator, read-out: PP2Aα sensitivity dEC50
Method: as §5, §6, §7, §8

[17] = target: T5, AMPK α2β2γ3; experiment: as above; assay type: biochemical; conditions: PP2Aα concentration for half-maximal dephosphorylation, absence of activator, read-out: PP2Aα sensitivity dEC50
Method: as §5, §6, §7, §8

[18] = presence of Mg2+ and 25 nM Stau, cell spans KD1 and KD2, read-out: KD (single measurable binding affinity)
[19] = presence of Mg2+, cell spans KD1 and KD2, read-out: KD (single measurable binding affinity)
[20] = tighter site, absence of Mg2+ and Stau, read-out: KD1
[21] = weaker site, absence of Mg2+ and Stau, read-out: KD2

T7 sequence (P54646 whole entry): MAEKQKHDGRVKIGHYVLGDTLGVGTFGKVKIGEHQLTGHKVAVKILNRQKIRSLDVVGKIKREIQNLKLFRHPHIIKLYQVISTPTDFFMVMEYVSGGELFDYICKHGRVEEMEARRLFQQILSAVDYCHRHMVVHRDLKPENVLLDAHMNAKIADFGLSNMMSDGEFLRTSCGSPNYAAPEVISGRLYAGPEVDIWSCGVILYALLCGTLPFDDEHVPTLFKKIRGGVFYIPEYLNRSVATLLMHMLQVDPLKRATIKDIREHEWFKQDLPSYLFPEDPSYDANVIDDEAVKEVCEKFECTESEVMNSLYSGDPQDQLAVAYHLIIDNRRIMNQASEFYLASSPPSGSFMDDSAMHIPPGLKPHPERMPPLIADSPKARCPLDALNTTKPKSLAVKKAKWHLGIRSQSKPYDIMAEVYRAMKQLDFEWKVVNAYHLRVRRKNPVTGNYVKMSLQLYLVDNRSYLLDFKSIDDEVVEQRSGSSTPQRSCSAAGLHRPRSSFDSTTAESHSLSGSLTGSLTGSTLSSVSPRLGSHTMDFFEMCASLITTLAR
T7 sequence (O43741 whole entry): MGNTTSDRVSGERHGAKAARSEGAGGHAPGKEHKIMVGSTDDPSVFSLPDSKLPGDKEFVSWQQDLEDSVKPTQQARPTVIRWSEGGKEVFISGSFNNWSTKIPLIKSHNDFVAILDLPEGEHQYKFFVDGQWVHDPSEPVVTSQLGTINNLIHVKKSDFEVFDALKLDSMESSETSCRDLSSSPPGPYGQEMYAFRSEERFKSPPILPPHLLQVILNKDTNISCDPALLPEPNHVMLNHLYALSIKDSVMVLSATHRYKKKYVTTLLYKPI
T7 sequence (Q9UGI9 whole entry): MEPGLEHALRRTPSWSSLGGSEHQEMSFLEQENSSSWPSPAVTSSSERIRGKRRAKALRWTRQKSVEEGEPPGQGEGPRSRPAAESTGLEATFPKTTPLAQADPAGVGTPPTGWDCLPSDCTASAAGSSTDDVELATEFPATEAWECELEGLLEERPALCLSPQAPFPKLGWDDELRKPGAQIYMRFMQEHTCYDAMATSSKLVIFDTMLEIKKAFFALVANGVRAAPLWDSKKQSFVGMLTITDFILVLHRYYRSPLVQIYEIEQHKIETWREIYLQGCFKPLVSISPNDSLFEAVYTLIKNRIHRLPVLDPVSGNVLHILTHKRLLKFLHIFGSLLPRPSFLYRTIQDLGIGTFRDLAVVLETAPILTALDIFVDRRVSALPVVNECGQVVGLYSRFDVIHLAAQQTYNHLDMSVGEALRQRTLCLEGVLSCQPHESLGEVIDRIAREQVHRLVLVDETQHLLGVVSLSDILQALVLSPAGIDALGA
T10 sequence (P54646 whole entry): as the sequence (P54646 whole entry) above
T10 sequence (O43741 whole entry): as the sequence (O43741 whole entry) above
T10 sequence (P54619 whole entry): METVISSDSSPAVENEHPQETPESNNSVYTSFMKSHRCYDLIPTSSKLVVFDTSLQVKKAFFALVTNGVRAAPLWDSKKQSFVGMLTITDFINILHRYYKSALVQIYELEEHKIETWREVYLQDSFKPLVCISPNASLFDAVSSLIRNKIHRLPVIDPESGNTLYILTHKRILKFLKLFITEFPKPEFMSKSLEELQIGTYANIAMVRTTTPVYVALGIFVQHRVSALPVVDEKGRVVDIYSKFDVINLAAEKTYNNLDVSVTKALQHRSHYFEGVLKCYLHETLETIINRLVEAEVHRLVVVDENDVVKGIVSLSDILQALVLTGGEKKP
T8 sequence (Q13131 whole entry): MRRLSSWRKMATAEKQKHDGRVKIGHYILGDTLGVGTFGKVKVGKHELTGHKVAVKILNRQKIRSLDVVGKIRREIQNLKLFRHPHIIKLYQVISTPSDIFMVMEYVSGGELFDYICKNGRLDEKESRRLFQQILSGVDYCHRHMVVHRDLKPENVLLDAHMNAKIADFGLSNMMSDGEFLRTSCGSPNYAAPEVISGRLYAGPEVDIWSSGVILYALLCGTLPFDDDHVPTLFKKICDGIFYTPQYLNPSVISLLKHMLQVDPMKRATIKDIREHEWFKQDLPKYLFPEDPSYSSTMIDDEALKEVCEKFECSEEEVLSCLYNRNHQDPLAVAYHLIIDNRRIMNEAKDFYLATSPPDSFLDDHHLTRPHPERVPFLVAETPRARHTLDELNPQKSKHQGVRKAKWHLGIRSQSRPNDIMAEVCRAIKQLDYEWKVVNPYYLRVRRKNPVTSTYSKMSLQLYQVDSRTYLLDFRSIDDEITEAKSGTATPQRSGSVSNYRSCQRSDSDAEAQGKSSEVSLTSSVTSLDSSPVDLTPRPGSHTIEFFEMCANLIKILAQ
T8 sequence (O43741 whole entry): as the sequence (O43741 whole entry) above
T8 sequence (P54619 whole entry): as the sequence (P54619 whole entry) above
T9 sequence (Q13131 whole entry): as the sequence (Q13131 whole entry) above
T9 sequence (Q9Y478 whole entry): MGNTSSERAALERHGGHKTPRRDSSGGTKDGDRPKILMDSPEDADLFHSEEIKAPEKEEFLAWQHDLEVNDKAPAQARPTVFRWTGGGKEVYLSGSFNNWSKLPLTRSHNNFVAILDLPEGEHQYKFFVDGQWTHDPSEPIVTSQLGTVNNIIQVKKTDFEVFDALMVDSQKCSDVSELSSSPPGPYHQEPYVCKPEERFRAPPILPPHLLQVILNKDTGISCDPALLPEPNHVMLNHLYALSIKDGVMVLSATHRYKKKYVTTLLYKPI
T9 sequence (P54619 whole entry): as the sequence (P54619 whole entry) above
T5 sequence (P54646 whole entry): as the sequence (P54646 whole entry) above
T5 sequence (O43741 whole entry): as the sequence (O43741 whole entry) above
T5 sequence (Q9UGI9 whole entry): as the sequence (Q9UGI9 whole entry) above
T2 sequence (P54646 whole entry): as the sequence (P54646 whole entry) above
T2 sequence (Q9Y478 whole entry): as the sequence (Q9Y478 whole entry) above
T2 sequence (P54619 whole entry): as the sequence (P54619 whole entry) above
T1 sequence (P54646 whole entry): as the sequence (P54646 whole entry) above
T1 sequence (O43741 whole entry): as the sequence (O43741 whole entry) above
T1 sequence (P54619 whole entry): as the sequence (P54619 whole entry) above
T4 sequence (Q13131 whole entry): as the sequence (Q13131 whole entry) above
T4 sequence (O43741 whole entry): as the sequence (O43741 whole entry) above
T4 sequence (Q9UGI9 whole entry): as the sequence (Q9UGI9 whole entry) above
T11 sequence (P54646 7-282): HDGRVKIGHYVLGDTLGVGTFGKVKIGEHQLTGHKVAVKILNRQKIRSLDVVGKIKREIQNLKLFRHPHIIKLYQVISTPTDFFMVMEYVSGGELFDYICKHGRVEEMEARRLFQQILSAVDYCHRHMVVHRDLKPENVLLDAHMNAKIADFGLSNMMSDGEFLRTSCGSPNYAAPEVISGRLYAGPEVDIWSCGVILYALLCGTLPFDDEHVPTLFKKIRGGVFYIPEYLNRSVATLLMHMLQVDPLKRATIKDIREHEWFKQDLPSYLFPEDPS
T12 sequence (Q13131 18-293): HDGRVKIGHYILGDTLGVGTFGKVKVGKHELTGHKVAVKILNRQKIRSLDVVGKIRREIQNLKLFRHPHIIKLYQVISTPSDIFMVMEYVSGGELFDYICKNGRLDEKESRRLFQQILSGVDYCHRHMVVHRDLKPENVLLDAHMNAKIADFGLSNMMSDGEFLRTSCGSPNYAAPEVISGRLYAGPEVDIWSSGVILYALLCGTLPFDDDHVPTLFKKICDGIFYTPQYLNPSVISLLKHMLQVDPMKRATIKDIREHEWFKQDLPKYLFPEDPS
T6 sequence (Q13131 whole entry): as the sequence (Q13131 whole entry) above
T6 sequence (Q9Y478 whole entry): as the sequence (Q9Y478 whole entry) above
T6 sequence (P54619 whole entry): as the sequence (P54619 whole entry) above
T3 sequence (Q13131 whole entry): as the sequence (Q13131 whole entry) above
T3 sequence (O43741 whole entry): as the sequence (O43741 whole entry) above
T3 sequence (P54619 whole entry): as the sequence (P54619 whole entry) above

Compound: Nc1ncnc2c1ncn2[C@@H]1O[C@H](COP(=O)(O)OP(=O)(O)OP(=O)(O)O)[C@@H](O)[C@H]1O [ATP]
Km [1]: 48 ± 5 µM | Km [2]: 31.4 ± 9.3 µM | Km [3]: 45.1 ± 5.8 µM | Km [4]: 333 ± 65 µM | Km [5]: 417 ± 39 µM | Km [6]: 26 ± 5.6 µM | Kd [7, 18]: 540 ± 20 µM | Kd [7, 19]: 277 ± 4 µM | Kd [7, 20]: 7.6 ± 0.6 µM | Kd [7, 21]: 3500 ± 300 µM | Kd [8, 18]: 400 ± 20 µM | Kd [8, 19]: 95 ± 1 µM | Kd [8, 20]: 1.1 ± 0.04 µM | Kd [8, 21]: 3400 ± 300 µM | Kd ([9]; read-out: equilibrium dissociation constant, stronger binding site): 18 µM | Kd ([9]; read-out: equilibrium dissociation constant, weaker binding site): 230 µM | Kd [10, 18]: 300 ± 10 µM | Kd [10, 19]: 130 ± 1 µM | Kd [10, 20]: 1.35 ± 0.02 µM | Kd [10, 21]: 2260 ± 90 µM | Kd [11, 18]: 133 ± 4 µM | Kd [11, 19]: 95 ± 1 µM | Kd [11, 20]: 0.92 ± 0.03 µM | Kd [11, 21]: 2900 ± 200 µM

EC50 [12]: 0.057 µM | EC50 [13]: 0.0013 µM | EC50 [14]: 0.04 µM | EC50 [15]: 0.0032 µM | EC50 [16]: 0.441 µM | EC50 [17]: 0.041 µM
Compound: PP2Aα: Human recombinant protein phosphatase 2Aα catalytic subunit expressed in insect cells
